Reference: the supplement of paper PMC10307832

Legend:
Assay in all cases: relative viability (nuclei count vs DMSO), 5 days (fraction); higher = more cells survive
LXF-289 = tested on: LXF-289
Outline: (§1)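 Lung cancer cell lines in 1536-well plates got either a single drug or a fixed anchor-drug dose together with five library-drug doses (not always all listed) in √10 steps, by pin tool, on the day after seeding. Nuclei were counted after 5 days, and relative viability is the treated-to-vehicle ratio of nuclei counts. Values are medians of duplicate plates.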

NCI-H3122 = tested on: NCI-H3122
Outline: as §1

NCI-H838 = tested on: NCI-H838
Outline: as §1

NCI-H1666 = tested on: NCI-H1666
Outline: as §1

NCI-H2170 = tested on: NCI-H2170
Outline: as §1

NCI-H358 = tested on: NCI-H358
Outline: as §1

ABC-1 = tested on: ABC-1
Outline: as §1

BEN = tested on: BEN
Outline: as §1

EKVX = tested on: EKVX
Outline: as §1

NCI-H23 = tested on: NCI-H23
Outline: as §1

LU99A = tested on: LU99A
Outline: as §1

NCI-H727 = tested on: NCI-H727
Outline: as §1

NCI-H322M = tested on: NCI-H322M
Outline: as §1

HOP-62 = tested on: HOP-62
Outline: as §1

HCC-827 = tested on: HCC-827
Outline: as §1

EPLC-272H = tested on: EPLC-272H
Outline: as §1

NCI-H2405 = tested on: NCI-H2405
Outline: as §1

NCI-H1975 = tested on: NCI-H1975
Outline: as §1

COCC1(CO)C(=O)C2CCN1CC2 (centres undefined) [PRIMA-1MET] + NC(=O)Nc1cc(-c2cccc(F)c2)sc1C(=O)N[C@H]1CCCNC1 [AZD7762] (partner 0.2 µM)
relative viability (LXF-289; first compound 0.2 µM): 1.15 | relative viability (LXF-289; first compound 0.6325 µM): 1.07 | relative viability (LXF-289; first compound 2 µM): 1.13 | relative viability (LXF-289; first compound 6.325 µM): 1.12 | relative viability (LXF-289; first compound 20 µM): 1.01 | relative viability (NCI-H3122; first compound 0.2 µM): 0.854 | relative viability (NCI-H3122; first compound 0.6325 µM): 0.911 | relative viability (NCI-H3122; first compound 2 µM): 0.985 | relative viability (NCI-H3122; first compound 6.325 µM): 0.95 | relative viability (NCI-H3122; first compound 20 µM): 0.879 | relative viability (NCI-H838; first compound 0.2 µM): 0.989 | relative viability (NCI-H838; first compound 0.6325 µM): 0.88 | relative viability (NCI-H838; first compound 2 µM): 0.9 | relative viability (NCI-H838; first compound 6.325 µM): 1.05 | relative viability (NCI-H838; first compound 20 µM): 0.849 | relative viability (NCI-H1666; first compound 0.2 µM): 0.841 | relative viability (NCI-H1666; first compound 0.6325 µM): 0.688 | relative viability (NCI-H1666; first compound 2 µM): 0.798 | relative viability (NCI-H1666; first compound 6.325 µM): 0.817 | relative viability (NCI-H1666; first compound 20 µM): 0.728 | relative viability (NCI-H2170; first compound 0.2 µM): 1.06 | relative viability (NCI-H2170; first compound 0.6325 µM): 0.604 | relative viability (NCI-H2170; first compound 2 µM): 0.644 | relative viability (NCI-H2170; first compound 6.325 µM): 1 | relative viability (NCI-H2170; first compound 20 µM): 0.836 | relative viability (NCI-H358; first compound 0.2 µM): 0.592 | relative viability (NCI-H358; first compound 2 µM): 0.489 | relative viability (NCI-H358; first compound 6.325 µM): 0.484 | relative viability (NCI-H358; first compound 20 µM): 0.0265 | relative viability (ABC-1; first compound 0.2 µM): 0.97 | relative viability (ABC-1; first compound 0.6325 µM): 0.624 | relative viability (ABC-1; first compound 2 µM): 0.952 | relative viability (ABC-1; first compound 6.325 µM): 0.775 | relative viability (ABC-1; first compound 20 µM): 0.376 | relative viability (BEN; first compound 0.2 µM): 0.733 | relative viability (BEN; first compound 0.6325 µM): 0.603 | relative viability (BEN; first compound 6.325 µM): 0.653 | relative viability (BEN; first compound 20 µM): 0.652 | relative viability (EKVX; first compound 0.2 µM): 0.72 | relative viability (EKVX; first compound 2 µM): 0.524 | relative viability (EKVX; first compound 6.325 µM): 0.748 | relative viability (EKVX; first compound 20 µM): 0.378 | relative viability (NCI-H23; first compound 0.2 µM): 0.212 | relative viability (NCI-H23; first compound 0.6325 µM): 0.225 | relative viability (NCI-H23; first compound 2 µM): 0.231 | relative viability (NCI-H23; first compound 6.325 µM): 0.209 | relative viability (NCI-H23; first compound 20 µM): 0.102 | relative viability (LU99A; first compound 0.2 µM): 0.548 | relative viability (LU99A; first compound 0.6325 µM): 0.167 | relative viability (LU99A; first compound 2 µM): 0.443 | relative viability (LU99A; first compound 6.325 µM): 0.361 | relative viability (LU99A; first compound 20 µM): 0.0555 | relative viability (NCI-H727; first compound 0.2 µM): 0.505 | relative viability (NCI-H727; first compound 0.6325 µM): 0.62 | relative viability (NCI-H727; first compound 6.325 µM): 0.421 | relative viability (NCI-H727; first compound 20 µM): 0.349 | relative viability (NCI-H322M; first compound 0.2 µM): 0.657 | relative viability (NCI-H322M; first compound 0.6325 µM): 0.558 | relative viability (NCI-H322M; first compound 6.325 µM): 0.59 | relative viability (NCI-H322M; first compound 20 µM): 0.406 | relative viability (HOP-62; first compound 0.2 µM): 0.653 | relative viability (HOP-62; first compound 0.6325 µM): 0.387 | relative viability (HOP-62; first compound 2 µM): 0.482 | relative viability (HOP-62; first compound 6.325 µM): 0.655 | relative viability (HOP-62; first compound 20 µM): 0.273 | relative viability (HCC-827; first compound 0.2 µM): 0.206 | relative viability (HCC-827; first compound 0.6325 µM): 0.224 | relative viability (HCC-827; first compound 2 µM): 0.181 | relative viability (HCC-827; first compound 6.325 µM): 0.211 | relative viability (HCC-827; first compound 20 µM): 0.239 | relative viability (EPLC-272H; first compound 0.2 µM): 0.236 | relative viability (EPLC-272H; first compound 0.6325 µM): 0.123 | relative viability (EPLC-272H; first compound 2 µM): 0.178 | relative viability (EPLC-272H; first compound 6.325 µM): 0.262 | relative viability (EPLC-272H; first compound 20 µM): 0.147 | relative viability (NCI-H2405; first compound 0.2 µM): 0.753 | relative viability (NCI-H2405; first compound 0.6325 µM): 0.748 | relative viability (NCI-H2405; first compound 6.325 µM): 0.676 | relative viability (NCI-H2405; first compound 20 µM): 0.0739 | relative viability (NCI-H1975; first compound 0.2 µM): 0.807 | relative viability (NCI-H1975; first compound 0.6325 µM): 0.648 | relative viability (NCI-H1975; first compound 2 µM): 0.651 | relative viability (NCI-H1975; first compound 6.325 µM): 0.811 | relative viability (NCI-H1975; first compound 20 µM): 0.181
